Test results reported in PubChem BioAssay (NCI).
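Five concentrations, 48 hours, 96-well plates. TGI denotes the concentration required for complete inhibition of growth.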

Experiments:
Assay in all cases: NCI-60 cell line screen, 48 h
SR leukemia = test system: SR leukemia
HOP-92 NSCLC = test system: HOP-92 NSCLC
RXF 393 renal = test system: RXF 393 renal
OVCAR-4 ovarian = test system: OVCAR-4 ovarian
MDA-N = test system: MDA-N
SK-OV-3 ovarian = test system: SK-OV-3 ovarian
COLO 205 colon = test system: COLO 205 colon
SF-295 CNS = test system: SF-295 CNS
LOX IMVI melanoma = test system: LOX IMVI melanoma
SNB-19 CNS = test system: SNB-19 CNS
SW-620 colon = test system: SW-620 colon
SK-MEL-28 melanoma = test system: SK-MEL-28 melanoma
IGROV1 ovarian = test system: IGROV1 ovarian
HCC-2998 colon = test system: HCC-2998 colon
OVCAR-8 ovarian = test system: OVCAR-8 ovarian
NCI-H460 lung = test system: NCI-H460 lung
HL-60(TB) leukemia = test system: HL-60(TB) leukemia
DU-145 prostate = test system: DU-145 prostate
NCI-H226 lung = test system: NCI-H226 lung
HCT-15 colon = test system: HCT-15 colon
U251 CNS = test system: U251 CNS
BT-549 breast = test system: BT-549 breast
HT29 colon = test system: HT29 colon
HS 578T breast = test system: HS 578T breast
MALME-3M melanoma = test system: MALME-3M melanoma
OVCAR-3 ovarian = test system: OVCAR-3 ovarian
PC-3 prostate = test system: PC-3 prostate
NCI/ADR-RES ovarian = test system: NCI/ADR-RES ovarian
786-0 renal = test system: 786-0 renal
T-47D breast = test system: T-47D breast
SK-MEL-5 melanoma = test system: SK-MEL-5 melanoma
SF-539 CNS = test system: SF-539 CNS
A498 renal = test system: A498 renal
A549 NSCLC = test system: A549 NSCLC
NCI-H23 lung = test system: NCI-H23 lung
KM12 colon = test system: KM12 colon
MDA-MB-231 breast = test system: MDA-MB-231 breast
SNB-75 CNS = test system: SNB-75 CNS
SF-268 CNS = test system: SF-268 CNS
ACHN renal = test system: ACHN renal
OVCAR-5 ovarian = test system: OVCAR-5 ovarian
MCF7 breast = test system: MCF7 breast
TK-10 renal = test system: TK-10 renal
HCT-116 colon = test system: HCT-116 colon
UO-31 renal = test system: UO-31 renal
RPMI-8226 leukemia = test system: RPMI-8226 leukemia
M14 melanoma = test system: M14 melanoma
HOP-62 NSCLC = test system: HOP-62 NSCLC
SN12C renal = test system: SN12C renal
UACC-62 melanoma = test system: UACC-62 melanoma
MOLT-4 leukemia = test system: MOLT-4 leukemia
K-562 leukemia = test system: K-562 leukemia
MDA-MB-435 = test system: MDA-MB-435
NCI-H522 lung = test system: NCI-H522 lung
CCRF-CEM leukemia = test system: CCRF-CEM leukemia
CAKI-1 renal = test system: CAKI-1 renal
EKVX NSCLC = test system: EKVX NSCLC

In the case of CC(C)=CCNc1ncnc2c1ncn2CCC(=O)OC(C)(C)C, the TGI (SR leukemia) is reported as over 100 µM, the TGI (HOP-92 NSCLC) is reported as over 100 µM and the TGI (RXF 393 renal) is reported as over 100 µM. The TGI (OVCAR-4 ovarian) was 40.4 µM, the TGI (MDA-N) was over 100 µM and the TGI (SK-OV-3 ovarian) was over 100 µM. It also gave a TGI (COLO 205 colon) of over 100 µM, a TGI (SF-295 CNS) of over 100 µM and a TGI (LOX IMVI melanoma) of over 100 µM. It also gave a TGI (SNB-19 CNS) of over 100 µM, a TGI (SW-620 colon) of over 100 µM and a TGI (SK-MEL-28 melanoma) of over 100 µM. For the same molecule, the TGI (IGROV1 ovarian) was over 100 µM, the TGI (HCC-2998 colon) was over 100 µM and the TGI (OVCAR-8 ovarian) was over 100 µM. For the same molecule, the TGI (NCI-H460 lung) was over 100 µM, the TGI (HL-60(TB) leukemia) was over 100 µM and the TGI (DU-145 prostate) was over 100 µM. For the same molecule, the TGI (NCI-H226 lung) was over 100 µM, the TGI (HCT-15 colon) was over 100 µM and the TGI (U251 CNS) was over 100 µM. The TGI (BT-549 breast) was over 100 µM, the TGI (HT29 colon) was over 100 µM and the TGI (HS 578T breast) was over 100 µM. It also gave a TGI (MALME-3M melanoma) of over 100 µM, a TGI (OVCAR-3 ovarian) of over 100 µM and a TGI (PC-3 prostate) of over 100 µM. The TGI (NCI/ADR-RES ovarian) was over 100 µM, the TGI (786-0 renal) was over 100 µM and the TGI (T-47D breast) was over 100 µM. For the same molecule, the TGI (SK-MEL-5 melanoma) was 70 µM, the TGI (SF-539 CNS) was over 100 µM and the TGI (A498 renal) was over 100 µM. It also gave a TGI (A549 NSCLC) of over 100 µM, a TGI (NCI-H23 lung) of over 100 µM and a TGI (KM12 colon) of over 100 µM. The TGI (MDA-MB-231 breast) was over 100 µM, the TGI (SNB-75 CNS) was over 100 µM and the TGI (SF-268 CNS) was over 100 µM. It also gave a TGI (ACHN renal) of over 100 µM, a TGI (OVCAR-5 ovarian) of over 100 µM and a TGI (MCF7 breast) of over 100 µM. It also gave a TGI (TK-10 renal) of over 100 µM, a TGI (HCT-116 colon) of over 100 µM and a TGI (UO-31 renal) of over 100 µM. It also gave a TGI (RPMI-8226 leukemia) of over 100 µM, a TGI (M14 melanoma) of over 100 µM and a TGI (HOP-62 NSCLC) of over 100 µM. The TGI (SN12C renal) was over 100 µM, the TGI (UACC-62 melanoma) was over 100 µM and the TGI (MOLT-4 leukemia) was over 100 µM. For the same molecule, the TGI (K-562 leukemia) was over 100 µM, the TGI (MDA-MB-435) was over 100 µM and the TGI (NCI-H522 lung) was over 100 µM. The TGI (CCRF-CEM leukemia) was over 100 µM.

In the case of COc1ccc(C2Oc3c(cccc3OC)C=C2[N+](=O)[O-])cc1OC (stereo not given), the TGI (SR leukemia) is reported as over 100 µM, the TGI (RXF 393 renal) is reported as 8.76 µM and the TGI (OVCAR-4 ovarian) is reported as over 100 µM. The TGI (MDA-N) was over 100 µM, the TGI (SK-OV-3 ovarian) was 17.9 µM and the TGI (COLO 205 colon) was 73.7 µM. The TGI (SF-295 CNS) was 71.7 µM, the TGI (LOX IMVI melanoma) was 20.5 µM and the TGI (SNB-19 CNS) was over 100 µM. The TGI (SK-MEL-28 melanoma) was 20.5 µM, the TGI (IGROV1 ovarian) was 24.7 µM and the TGI (NCI-H460 lung) was over 100 µM. For the same molecule, the TGI (HL-60(TB) leukemia) was over 100 µM, the TGI (DU-145 prostate) was over 100 µM and the TGI (NCI-H226 lung) was 78.2 µM. The TGI (HCT-15 colon) was 24 µM, the TGI (U251 CNS) was 15.2 µM and the TGI (BT-549 breast) was 31 µM. For the same molecule, the TGI (HT29 colon) was over 100 µM, the TGI (HS 578T breast) was over 100 µM and the TGI (MALME-3M melanoma) was 38.7 µM. The TGI (OVCAR-3 ovarian) was 67.9 µM, the TGI (PC-3 prostate) was 26.5 µM and the TGI (NCI/ADR-RES ovarian) was 53.4 µM. For the same molecule, the TGI (786-0 renal) was 19.7 µM, the TGI (T-47D breast) was over 100 µM and the TGI (SK-MEL-5 melanoma) was 16.1 µM. It also gave a TGI (A549 NSCLC) of over 100 µM, a TGI (NCI-H23 lung) of 22.3 µM and a TGI (KM12 colon) of 34 µM. The TGI (MDA-MB-231 breast) was over 100 µM, the TGI (SNB-75 CNS) was over 100 µM and the TGI (SF-268 CNS) was over 100 µM. For the same molecule, the TGI (ACHN renal) was 29.3 µM, the TGI (OVCAR-5 ovarian) was 51.4 µM and the TGI (MCF7 breast) was over 100 µM. The TGI (TK-10 renal) was 81.8 µM, the TGI (HCT-116 colon) was 17.4 µM and the TGI (UO-31 renal) was 29.2 µM. For the same molecule, the TGI (RPMI-8226 leukemia) was over 100 µM, the TGI (M14 melanoma) was 19.6 µM and the TGI (HOP-62 NSCLC) was over 100 µM. The TGI (CAKI-1 renal) was 38.3 µM, the TGI (EKVX NSCLC) was over 100 µM and the TGI (UACC-62 melanoma) was 17.9 µM. For the same molecule, the TGI (MOLT-4 leukemia) was over 100 µM, the TGI (K-562 leukemia) was over 100 µM and the TGI (MDA-MB-435) was 8.3 µM. The TGI (NCI-H522 lung) was 12.8 µM and the TGI (CCRF-CEM leukemia) was over 100 µM.
